According to the supplement of paper PMC10307832:

Experiments:
Assay in all cases: relative viability (nuclei count vs DMSO), 5 days (fraction); higher = more cells survive
R406 + Decitabine = compound: COc1cc(Nc2ncc(F)c(Nc3ccc4c(n3)NC(=O)C(C)(C)O4)n2)cc(OC)c1OC [R406] + Nc1ncn([C@H]2C[C@H](O)[C@@H](CO)O2)c(=O)n1 [Decitabine] (partner 2 µM)
Outline: (§1)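 Medians of duplicate plates are given as relative viability. That measure is the nuclei count in treated wells divided by the count in vehicle wells. Counts were taken on 4× images of lung cancer cell lines in 1536-well plates, 5 days after pin-tool dosing the day after seeding with one drug alone or a fixed anchor-drug dose plus five library-drug doses (not always all listed) in √10 steps.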

Daporinad + Linsitinib = compound: O=C(/C=C/c1cccnc1)NCCCCC1CCN(C(=O)c2ccccc2)CC1 [Daporinad] + C[C@]1(O)C[C@@H](c2nc(-c3ccc4ccc(-c5ccccc5)nc4c3)c3c(N)nccn32)C1 [Linsitinib] (partner 1 µM)
Outline: as §1

R406 + Luminespib = compound: COc1cc(Nc2ncc(F)c(Nc3ccc4c(n3)NC(=O)C(C)(C)O4)n2)cc(OC)c1OC [R406] + CCNC(=O)c1noc(-c2cc(C(C)C)c(O)cc2O)c1-c1ccc(CN2CCOCC2)cc1 [Luminespib] (partner 0.01 µM)
Outline: as §1

R406 + Phenformin = compound: COc1cc(Nc2ncc(F)c(Nc3ccc4c(n3)NC(=O)C(C)(C)O4)n2)cc(OC)c1OC [R406] + N=C(N)NC(=N)NCCc1ccccc1 [Phenformin] (partner 250 µM)
Outline: as §1

Cell Line | relative viability (R406 + Decitabine; first compound 0.08 µM) | relative viability (R406 + Decitabine; first compound 0.253 µM) | relative viability (R406 + Decitabine; first compound 0.8 µM) | relative viability (R406 + Decitabine; first compound 2.53 µM) | relative viability (R406 + Decitabine; first compound 8 µM) | relative viability (Daporinad + Linsitinib; first compound 0.0005 µM) | relative viability (Daporinad + Linsitinib; first compound 0.001581 µM) | relative viability (Daporinad + Linsitinib; first compound 0.005 µM) | relative viability (Daporinad + Linsitinib; first compound 0.01581 µM) | relative viability (R406 + Luminespib; first compound 0.08 µM) | relative viability (R406 + Luminespib; first compound 0.253 µM) | relative viability (R406 + Luminespib; first compound 0.8 µM) | relative viability (R406 + Luminespib; first compound 2.53 µM) | relative viability (R406 + Luminespib; first compound 8 µM) | relative viability (R406 + Phenformin; first compound 0.08 µM) | relative viability (R406 + Phenformin; first compound 0.253 µM) | relative viability (R406 + Phenformin; first compound 0.8 µM) | relative viability (R406 + Phenformin; first compound 2.53 µM) | relative viability (R406 + Phenformin; first compound 8 µM)
201T | 0.838 | 0.847 | 0.861 | 0.839 | 0.586 | 0.998 | 0.973 | 1.04 | 1.02 | 1.08 | 1.06 | 1.07 | 1 | 0.655 | 0.416 | 0.483 | 0.431 | 0.367 | 0.351
A549 | 0.22 | 0.261 | 0.257 | 0.258 | 0.311 | 0.535 | 0.604 | 0.516 | 0.627 | – | – | – | – | – | 0.142 | 0.21 | 0.122 | 0.155 | 0.0767
A-427 | 0.583 | 0.626 | 0.717 | 0.514 | 0.571 | 0.96 | 1.08 | 1.1 | 0.881 | 0.929 | 1 | 1.04 | 0.398 | 0.593 | 0.382 | 0.335 | 0.316 | 0.171 | 0.134
ABC-1 | 1.02 | 1.21 | 1.03 | 0.793 | 0.736 | 0.887 | 1.04 | 0.882 | 0.792 | – | 0.569 | 0.27 | 0.338 | 0.213 | 0.227 | 0.225 | 0.236 | 0.197 | 0.201
BEN | 0.679 | 0.793 | 0.726 | 0.683 | 0.441 | 0.923 | 0.938 | 0.951 | 1.22 | 0.365 | 0.343 | 0.22 | 0.214 | 0.392 | 0.267 | 0.283 | 0.256 | 0.26 | 0.249
CAL-12T | – | – | – | – | – | 0.697 | 0.936 | 0.778 | 0.24 | 0.57 | 0.516 | 0.52 | 0.124 | 0.138 | 0.57 | 0.667 | 0.668 | 0.353 | 0.14
COR-L23 | 0.397 | 0.447 | 0.512 | 0.339 | 0.326 | 0.964 | 0.959 | 0.942 | 0.189 | 0.665 | 0.919 | 0.71 | 0.3 | 0.372 | 0.416 | 0.456 | 0.501 | 0.379 | 0.261
COR-L 105 | 0.593 | 0.561 | 0.758 | 0.563 | 0.475 | 0.927 | 1.07 | 0.842 | 1.08 | 0.757 | 0.972 | 0.658 | 0.551 | 0.768 | 0.495 | 0.569 | 0.602 | 0.366 | 0.224
Calu-6 | – | – | – | – | – | 0.841 | 1.03 | 0.926 | 0.821 | – | – | – | – | – | – | – | – | – | –
ChaGo-K-1 | 0.491 | 0.546 | 0.557 | 0.504 | 0.506 | – | – | – | – | 0.613 | 0.548 | 0.652 | 0.404 | 0.473 | 0.491 | 0.508 | 0.657 | 0.42 | 0.403
